Results reported in US20120077804A1, “Small Molecule Inhibitors of RNA Silencing” (The Regents of the University of California, priority 2007, published 2012).

Tests used:
[1] = tested on: RNAi induced by synthetic double-stranded RNA (dsRNA); test: Northern blot of Cyclin A mRNA in S2 cells, RNAi induced by synthetic dsRNA (dsCycA); type: cell-based, Drosophila; conditions: for Degradation of cyclin A mRNA targeted by dsCycA: dsCycA plus 30 μM compound
Description: FIG. 2 illustrates the northern blot detection of Cyclin A mRNA in S2 cells.
Degradation of cyclin A mRNA occurred in S2 cells transfected with a dsRNA specific to cyclin A (dsCycA) (see, FIG. 2, lanes 1-2), but not in cells treated with a GFP-specific dsRNA (dsGFP) (see, FIG. 2, lane 8). […] Similar inhibition of cyclin A RNAi was also observed in cells co-transfected with a dsRNA targeting mRNA of Drosophila Ago2 (see, FIG. 2, lane 9), which is essential for RNAi in Drosophila.

[2] = tested on: RNAi-mediated innate immunity against virus infection in cultured Drosophila cells; test: Cell-based high throughput screen, GFP expression in R1gfp cells after induction of FHV replication
Description: A cell-based high throughput screening protocol for the identification of chemical inhibitors of the RNAi-mediated innate immunity against virus infection in cultured Drosophila cells has been established. The system is based on Flock house virus (FHV), an animal Nodavirus that contains a bipartite RNA genome. FHV RNA2 encodes the single virion structural protein, whereas FHV RNA1 encodes the viral RNA-dependent RNA polymerase (RdRP) and B2, a viral suppressor of RNAi (VSR) expressed after RNA1 replication from its own mRNA, RNA3. In the absence of RNA2, RNA1 replicates autonomously, accumulates to high levels, and produces abundant RNA3 in Drosophila cells. […] Similarly, green fluorescence is not detectable in wild type Drosophila cells transfected with pR1gfp, which encodes a recombinant RNA1 in which the viral B2 gene is replaced with green fluorescent protein (GFP) gene. A stable Drosophila Schneider 2 cell line has been established, and carries pR1gfp, called line R1gfp. R1gfp cells were seeded in 96-well plates and incubated overnight with chemicals from ChemBridge Diverset Library before FHV replication was induced. Expression of GFP was screened in R1gfp cells two days following the induction of FHV replication (see, Li et al., Proc Natl Acad Sci USA 2004, 101(5), 1350-5).

Row | SMILES | Inhibition of RNAi induced by synthetic double-stranded RNA (dsRNA) [1] | Degradation of cyclin A mRNA targeted by dsCycA [1] | Inhibition of RNAi-mediated viral immunity (detection of green fluorescence) [2]
1 | COc1ccc(CN2CCN(S(=O)(=O)c3ccc(C)cc3)CC2)cc1OCc1ccccc1 [Rin2, 1-[3-(benzyloxy)-4-methoxybenzyl]-4-[(4-methylphenyl)sulfony]piperazine] | active inhibitors | partially inhibited | inhibit the RNAi-mediated viral immunity
2 | CCN(CC)c1ccc(/C=C2/C(=O)NN(c3ccc(C)c(Cl)c3)C2=O)c(O)c1 [Rin3, 1-(3-chloro-4-methylphenyl)-4-[4-(diethylamino)-2-hydroxybenzylidene]-3,5-pyrazolidinedione] | active inhibitors | partially inhibited | inhibit the RNAi-mediated viral immunity
